Marks after values point to notes of the source that are not given here.
Tests used:
Format in all cases: in vivo
[1] = test system: Phakopsora pachyrhizi (the causal agent of Asian soybean rust); assay: Test A: preventive spray on soybean seedlings, Asian soybean rust, visual disease rating; details: soybean seedlings
Summary of the method: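 Compound in acetone/water (50/50) with 250 ppm PEG400 sprayed to run-off on soybean seedlings; inoculated next day with Phakopsora pachyrhizi spores. Held 24 h at 22° C in saturated atmosphere, then 8 days in a 22° C growth chamber before visual rating as % disease control relative to controls.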

[2] = test system: Zymoseptoria tritici (the causal agent of wheat leaf blotch); assay: Test B: preventive spray on wheat seedlings, wheat leaf blotch, visual disease rating; details: wheat seedlings
Description: General protocol for preparing test suspensions for Tests A-D: the test compounds were first dissolved in acetone in an amount equal to 3% of the final volume and then suspended at the desired concentration (in ppm) in acetone and purified water (50/50 mix by volume) containing 250 ppm of the surfactant PEG400 (polyhydric alcohol esters). The resulting test suspensions were then used in Tests A-D.
The test suspension was sprayed to the point of run-off on wheat seedlings. The following day the seedlings were inoculated with a spore suspension of Zymoseptoria tritici (the causal agent of wheat leaf blotch) and incubated in a saturated atmosphere at 24° C. for 48 h, and then moved to a growth chamber at 20° C. for 17 days, after which time visual disease ratings were made.
The test results for Tests A-C presented in Table A below for compounds of Formula 1 illustrate the fungicidal activity of component (a) contributing to the plant disease control utility of compositions comprising component (a) in combination with component (b) according to the present invention. In the Table, a rating of 100 indicates 100% disease control and a rating of 0 indicates no disease control (relative to the controls). A dash (-) indicates the compound was not tested. The test suspensions were sprayed at the concentration listed in the column “Rate in ppm”, unless otherwise indicated. An asterisk “*” next to the rating indicates a 250 ppm test suspension was used, a double asterisk “**” next to the rating indicates a 100 ppm test suspension was used, and a triple asterisk “***” next to the rating indicates a 50 ppm test suspension was used.

[3] = test system: Puccinia recondita f. sp. tritici (the causal agent of wheat leaf rust); assay: Test C: preventive spray on wheat seedlings, wheat leaf rust, visual disease rating; details: wheat seedlings
Summary of the method: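 Wheat seedlings sprayed to run-off with compound in acetone/water (50/50) with 250 ppm PEG400, then inoculated with spores the following day. After 24 h saturated humidity at 20° C. and 6 days in growth chamber at 20° C., disease rated visually as % control relative to untreated controls.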

[4] = test suspension 10 ppm, 100 = 100% disease control, 0 = no control
[5] = 10 ppm test suspension, 100 = 100% disease control, 0 = no control
[6] = 250 ppm test suspension, 100 = 100% disease control
[7] = test suspension 100 ppm (** next to rating)
[8] = 250 ppm test suspension, 100 = 100% disease control, 0 = no control
[9] = 50 ppm test suspension, 100 = 100% disease control, 0 = no control

O=C(NCC1CC1(F)F)c1coc(Cc2ccc(-c3noc(C(F)(F)F)n3)cc2)n1 (stereo not drawn) [compound 226]
Test A disease control rating [1, 4]: 100%
Test B disease control rating ([2]; test suspension 250 ppm): 94* %
Test C disease control rating ([3]; test suspension 10 ppm): 100%

N#CCNC(=O)c1csc(Cc2ccc(-c3noc(C(F)(F)F)n3)cc2)c1 [compound 288]
Test A disease control rating [1, 4]: 100%
Test B disease control rating ([2]; test suspension 250 ppm): 91* %
Test C disease control rating ([3]; test suspension 10 ppm): 100%

N#Cc1ccc2ccn(Cc3ccc(-c4noc(C(F)(F)F)n4)cc3)c2c1 [compound 88]
Test A disease control rating ([1]; test suspension 250 ppm): 100%
Test B disease control rating ([2]; test suspension 250 ppm): 93%
Test C disease control rating ([3]; test suspension 250 ppm): 100%

O=C(NCCn1cccn1)c1csc(COc2ccc(-c3noc(C(F)(F)F)n3)cc2)n1 [compound 471]
Test A disease control rating [1, 5]: 77%
Test B disease control rating [2, 6]: 15* %
Test C disease control rating [3, 5]: 80%

CC(C)COC(=O)c1cnn(Cc2ccc(-c3noc(C(F)(F)F)n3)cc2)c1 [compound 171]
Test A disease control rating [1, 4]: 100%
Test B disease control rating [2, 7]: 37** %
Test C disease control rating ([3]; test suspension 10 ppm): 100%

CNC(=O)C1=NOC(Cc2ccc(-c3noc(C(F)(F)F)n3)cc2)C1 (stereo not drawn) [compound 165]
Test A disease control rating ([1]; test suspension 260 ppm): 100%
Test B disease control rating ([2]; test suspension 260 ppm): 95%
Test C disease control rating ([3]; test suspension 260 ppm): 100%

O=C(NC1CC1)c1coc(Cc2ccc(-c3noc(C(F)(F)F)n3)cc2)n1 [compound 260]
Test A disease control rating [1, 4]: 100%
Test B disease control rating ([2]; test suspension 250 ppm): 47* %
Test C disease control rating ([3]; test suspension 10 ppm): 100%

O=S1(=O)CCCN1Cc1ccc(-c2noc(C(F)(F)F)n2)cc1 [compound 322]
Test A disease control rating ([1]; test suspension 250 ppm): 100%
Test B disease control rating ([2]; test suspension 250 ppm): 95* %
Test C disease control rating ([3]; test suspension 250 ppm): 100%

CCOC(=O)C1CCN(Cc2ccc(-c3noc(C(F)(F)F)n3)cc2)C1 (stereo not drawn) [compound 124]
Test A disease control rating ([1]; test suspension 260 ppm): 100%
Test B disease control rating ([2]; test suspension 260 ppm): 50%
Test C disease control rating ([3]; test suspension 260 ppm): 100%

O=c1sc2ccccc2n1Cc1ccc(-c2noc(C(F)(F)F)n2)cc1 [compound 156]
Test A disease control rating ([1]; test suspension 255 ppm): 100%
Test B disease control rating ([2]; test suspension 255 ppm): 86%
Test C disease control rating ([3]; test suspension 255 ppm): 100%

FC(F)(F)c1nc(-c2ccc(Cn3ccc(-c4ccccc4Cl)n3)cc2)no1 [compound 142]
Test A disease control rating ([1]; test suspension 250 ppm): 100%
Test B disease control rating ([2]; test suspension 250 ppm): 57%
Test C disease control rating ([3]; test suspension 250 ppm): 100%

O=C(NCC(F)(F)F)c1coc(COc2ccc(-c3noc(C(F)(F)F)n3)cc2)n1 [compound 465]
Test A disease control rating [1, 5]: 100%
Test B disease control rating [2, 6]: 0* %
Test C disease control rating [3, 5]: 80%

OC(c1ccc(-c2noc(C(F)(F)F)n2)cc1)c1cccc(Cl)c1 (stereo not drawn) [compound 499]
Test A disease control rating [1, 8]: 100%
Test B disease control rating [2, 6]: 48* %
Test C disease control rating [3, 8]: 100%

Fc1cccc2nn(Cc3ccc(-c4noc(C(F)(F)F)n4)cc3)cc12 [compound 130]
Test A disease control rating ([1]; test suspension 260 ppm): 100%
Test B disease control rating ([2]; test suspension 260 ppm): 89%
Test C disease control rating ([3]; test suspension 260 ppm): 100%

CCOC(=O)c1coc(Cc2ccc(-c3noc(C(F)(F)F)n3)cc2)n1 [compound 252]
Test A disease control rating [1, 4]: 100%
Test B disease control rating ([2]; test suspension 250 ppm): 92* %
Test C disease control rating ([3]; test suspension 10 ppm): 84%

O=C1CCCN1Cc1ccc(-c2noc(C(F)(F)F)n2)cc1 [compound 371]
Test A disease control rating ([1]; test suspension 250 ppm): 100%
Test B disease control rating ([2]; test suspension 250 ppm): 95* %
Test C disease control rating ([3]; test suspension 250 ppm): 100%

Fc1cccc2c1cnn2Cc1ccc(-c2noc(C(F)(F)F)n2)cc1 [compound 125]
Test A disease control rating ([1]; test suspension 260 ppm): 100%
Test B disease control rating ([2]; test suspension 260 ppm): 55%
Test C disease control rating ([3]; test suspension 260 ppm): 100%

N#CCNC(=O)c1coc(Cc2ccc(-c3noc(C(F)(F)F)n3)cc2)c1 [compound 294]
Test A disease control rating [1, 4]: 100%
Test B disease control rating ([2]; test suspension 250 ppm): 50* %
Test C disease control rating ([3]; test suspension 10 ppm): 79%

CCOC(=O)c1cnn(CN2CCC(c3noc(C(F)(F)F)n3)CC2)c1 [compound 458]
Test A disease control rating [1, 9]: 0%
Test B disease control rating [2, 6]: 0* %
Test C disease control rating [3, 9]: 0%

CN(C)N1C(=O)C(Cl)=C(Oc2ccc(-c3noc(C(F)(F)F)n3)cc2)C1=O [compound 356]
Test A disease control rating ([1]; test suspension 250 ppm): 99%
Test B disease control rating ([2]; test suspension 250 ppm): 96* %
Test C disease control rating ([3]; test suspension 250 ppm): 94%

O=C(c1ccc(Cc2ccc(-c3noc(C(F)(F)F)n3)cc2)o1)C(F)(F)F [compound 450]
Test A disease control rating [1, 5]: 94%
Test B disease control rating [2, 6]: 41* %
Test C disease control rating [3, 5]: 0%

CN(C)C(=O)C1=NOC(CCOc2cccc(-c3noc(C(F)(F)F)n3)c2)C1 (stereo not drawn) [compound 224]
pest or weed control at 50 µg/mL ([1]; Phakopsora pachyrhizi, 216 h, test suspension 50 ppm): 100%
pest or weed control at 250 µg/mL ([2]; Zymoseptoria tritici, 456 h, test suspension 250 ppm): 81%
pest or weed control at 50 µg/mL ([3]; Puccinia recondita, 168 h, test suspension 50 ppm): 89%

COC(=O)c1cnc(Oc2ccc(-c3noc(C(F)(F)F)n3)cc2)s1 [compound 452]
Test A disease control rating [1, 5]: 81%
Test B disease control rating [2, 6]: 59* %
Test C disease control rating [3, 5]: 0%

CCOC(=O)c1cnn(Cc2csc(-c3noc(C(F)(F)F)n3)c2)c1 [compound 193]
Test A disease control rating ([1]; test suspension 50 ppm): 100%
Test B disease control rating ([2]; test suspension 250 ppm): 28* %
Test C disease control rating ([3]; test suspension 50 ppm): 100%

FC(F)(F)c1nc(-c2cnn(CCCn3cc(-c4noc(C(F)(F)F)n4)cn3)c2)no1 [compound 326]
Test A disease control rating ([1]; test suspension 250 ppm): 84%
Test B disease control rating ([2]; test suspension 250 ppm): 1* %
Test C disease control rating ([3]; test suspension 250 ppm): 67%

O=C(O)c1csc(Cc2ccc(-c3noc(C(F)(F)F)n3)cc2)n1 [compound 345]
Test A disease control rating [1, 4]: 96%
Test B disease control rating ([2]; test suspension 250 ppm): 50* %
Test C disease control rating ([3]; test suspension 10 ppm): 68%

CCOC(=O)c1cnn(Cn2ccc(-c3noc(C(F)(F)F)n3)cc2=O)c1 [compound 234]
Test A disease control rating [1, 4]: 100%
Test B disease control rating ([2]; test suspension 250 ppm): 87* %
Test C disease control rating ([3]; test suspension 10 ppm): 88%

CCOC(=O)c1cnn(CCCn2nc(-c3noc(C(F)(F)F)n3)ccc2=O)c1 [compound 358]
Test A disease control rating [1, 4]: 0%
Test B disease control rating ([2]; test suspension 250 ppm): 0* %
Test C disease control rating ([3]; test suspension 10 ppm): 0%

COCCNC(=O)c1coc(COc2ccc(-c3noc(C(F)(F)F)n3)cc2)n1 [compound 464]
Test A disease control rating [1, 5]: 79%
Test B disease control rating [2, 6]: 94* %
Test C disease control rating [3, 5]: 23%

O=C(C1=NOC(Cc2ccc(-c3noc(C(F)(F)F)n3)cc2)C1)N1CCC1 (stereo not drawn) [compound 177]
Test A disease control rating ([1]; test suspension 250 ppm): 100%
Test B disease control rating ([2]; test suspension 250 ppm): 97%
Test C disease control rating ([3]; test suspension 250 ppm): 100%

C#CCOC(=O)c1cnn(Cc2ccc(-c3noc(C(F)(F)F)n3)cc2)c1 [compound 56]
Test A disease control rating [1, 4]: 100%
Test B disease control rating [2, 7]: 68** %
Test C disease control rating ([3]; test suspension 10 ppm): 100%

FC(F)(F)c1cc(C(F)(F)F)n(Cc2ccc(-c3noc(C(F)(F)F)n3)cc2)n1 [compound 144]
Test A disease control rating ([1]; test suspension 250 ppm): 36%
Test B disease control rating ([2]; test suspension 250 ppm): 0%
Test C disease control rating ([3]; test suspension 250 ppm): 0%

FC(F)(F)c1nc(-c2ccc(CN3CCOCC3)cc2)no1 [compound 96]
Test A disease control rating ([1]; test suspension 250 ppm): 100%
Test B disease control rating ([2]; test suspension 250 ppm): 0%
Test C disease control rating ([3]; test suspension 250 ppm): 99%

CC1(C)OCC(COC(=O)c2cnn(Cc3ccc(-c4noc(C(F)(F)F)n4)cc3)c2)O1 (stereo not drawn) [compound 496]
Test A disease control rating [1, 5]: 100%
Test B disease control rating [2, 6]: 48* %
Test C disease control rating [3, 5]: 0%

COC(=O)c1ccc(COc2ccc(-c3noc(C(F)(F)F)n3)cc2)s1 [compound 317]
Test A disease control rating [1, 4]: 0%
Test B disease control rating ([2]; test suspension 250 ppm): 54* %
Test C disease control rating ([3]; test suspension 10 ppm): 0%

FC(F)(F)c1nc(-c2ccc(Cn3cc(Br)cn3)cc2)no1 [compound 163]
Test A disease control rating ([1]; test suspension 250 ppm): 100%
Test B disease control rating ([2]; test suspension 250 ppm): 0%
Test C disease control rating ([3]; test suspension 250 ppm): 100%

FC(F)(F)c1nc(-c2ccc(Cn3cc(Br)c(-c4ccccc4Cl)n3)cc2)no1 [compound 146]
Test A disease control rating ([1]; test suspension 250 ppm): 100%
Test B disease control rating ([2]; test suspension 250 ppm): 0%
Test C disease control rating ([3]; test suspension 250 ppm): 0%

Source: US20240090503A1, “FUNGICIDAL OXADIAZOLES AND THEIR MIXTURES” (FMC CORPORATION, priority 2020, published 2024)
